# From patent publication US3991210A, “Acetamidine urinary antiseptics” (The Dow Chemical Company, priority 1975, dated 1976)
# Key:
# [1] = system: bacterial microorganisms which may infect the mammalian urinary system; assay: Urinary antiseptic activity (general statement); design: species or system mammals; conditions: in vivo
# [2] = Anorectic effect on repeated oral dosing in rats; format: in vivo; conditions: 100 mg/kg per day
# Proteus mirabilis = Proteus mirabilis urinary tract infection in rats, bacterial count per kidney (Example 6); format: in vivo; conditions: oral; for Mean Bacterial Count (number of organisms per kidney): three doses at 4, 28, 52 hours, 72 hours
# Method: In a similar operation, a Proteus mirabilis urinary tract infection was established in rats using a similar surgical technique. In separate groups, the test compound 2-(4-bromophenyl)acetamidine p-toluene-sulfonate, or the reference compound nalidixic acid, were administered orally in three doses, 4, 28 and 52 hours after completion of the surgical technique used to establish the infection. Separate groups of rats were left untreated to serve as controls. After 72 hours, the animals were euthanized with carbon dioxide. The left kidney was removed, homogenized in 9 milliliters sterile saline solution, and fivefold dilutions of the resulting brei were made in brain-heart infusion broth. Bacterial counts in the dilutions were determined after 24 hours incubation at 37° C. The oral dose in milligrams per kilogram (mg/kg); millimoles per kilogram (mM); the number of animals in each group, and the base ten logarithm (Log10) of the bacterial count (number of organisms per kidney) are set out below.
# [3] = Toxicity / detrimental pharmacological effects (general statement); format: in vivo, mammals
# [4] = Stability in comparison to the hydrochloride salt (general statement); format: physicochemical; conditions: versus hydrochloride salt
# [5] = Acute oral lethality (LD50) in mice; conditions: mouse, in vivo
# Method: Separate groups of mice are separately administered an aqueous composition containing 2-(4-bromophenyl)acetamidine hydrochloride. The compound is administered per os at various dosage rates, and the animals are held for 24 hours, after which deaths are recorded, and the LD50 (dosage lethal to 50 percent of the mice) is determined.
compound,measurement,setting,value
Cc1ccc(S(=O)(=O)O)cc1.N=C(N)Cc1ccc(Br)cc1 [2-(4-bromophenyl)acetamidine p-toluene-sulfonate],urinary antiseptic activity,[1],high degree of urinary antiseptic activity
same,"anorectic effect, by the fourth week",[2]; by the fourth week of dosing,decreases and substantially disappears by the fourth week of dosing
same,"anorectic effect, first week",[2]; during the first week,an anorectic effect is observed during the first week
same,Mean Bacterial Count (number of organisms per kidney),Proteus mirabilis; 12.5 mg/kg,7.49 Log10
same,Mean Bacterial Count (number of organisms per kidney),Proteus mirabilis; 25 mg/kg,6.01 Log10
same,Mean Bacterial Count (number of organisms per kidney),Proteus mirabilis; 50 mg/kg,4.23 Log10
same,Mean Bacterial Count (number of organisms per kidney),Proteus mirabilis; 100 mg/kg,2.68 Log10
same,"reduction of bacterial counts relative to nalidixic acid, weight basis",Proteus mirabilis; equal dose of nalidixic acid on a weight basis,"comparable to an equal dose of nalidixic acid, on a weight basis"
same,"effectiveness relative to nalidixic acid, molar basis",Proteus mirabilis; on a molar basis,"more effective, on a molar basis, than nalidixic acid"
same,toxicity,[3]; in vivo,low toxicity
same,toxicity characteristics in comparison to the corresponding hydrochloride salt,[3]; versus hydrochloride salt,improved
same,stability in comparison to the corresponding hydrochloride salt,[4],improved
same,LD50 at 24 h,[5],2610 mg/kg
